Results published in patent US10100282B2, “Differentiation of pluripotent cells” (FUJIFILM Cellular Dynamics, Inc., priority 2009, dated 2018).

Assays:
ROCK = conditions: cited from earlier work
hESCs and iPSCs = assay: EB formation from single cell suspensions using ROCK inhibitors/PVA; assay type: cell-based, human; conditions: 18-24 hrs
Method: hESCs and iPSCs adapted to feeder free growth on matrigel maintained using mTESR were preconditioned for three days in the presence of mTesR-GF containing 0.1 ng/ml TGF-β and 20 ng/ml FGF-2. To initiate differentiation from single cells the, the cultures were treated with TrypLE™ (Invitrogen) for 6 minutes and the cells suspension was collected in (1) plain EB basal media, (2) EB basal media containing PVA, (3) EB basal media containing 0.5% PVA and 1 μM H1152 or 10 μM Y27632 ROCK inhibitor, or (4) EB basal media containing only 1 uM H1152 ROCK inhibitor. The cells were collected and washed once and plated in the respective media formulations on a low attachment plate at 37 C. The EB formation status was checked at 18-24 hrs later under a phase contrast microscope.

pluripotent cells = assay: Hematopoietic differentiation in defined cell culture media with single growth factors; assay type: cell-based; conditions: factor alone in a cell culture media
hESCs = assay: Cytokine matrix: serum-free EB hematopoietic differentiation, surface markers by flow cytometry; assay type: cell-based, human; conditions: for role during EB differentiation: serum free hematopoietic differentiation, days 8, 12, 17
Method: Cells were collected from each well/condition and washed once with media. The cell pellet was digested using TrypLE™ or 0.5% trypsin for 5-10 minutes in a 37° C. incubator followed by washes with media and passage through a 70-μm cell strainer. […] Non-viable cells were excluded with 7-aminoactinomycin D (7-AAD, BD Biosciences). Live cell analysis was performed on a FACSCalibur™ or Accuri flow cytometer and Cell Quest software. hESCs adapted to feeder free growth on matrigel maintained using mTESR were preconditioned for three days in the presence of X-vivo-15 containing 0.1 ng/ml TGF-β and 20 ng/ml FGF-2. Cells were harvested using TrypLE for 6 minutes at 37 C. TrypLE™ was neutralized using EB basal media containing 1 μM ROCK inhibitor (H-1152), Soybean trypsin inhibitor (0.25 mg/ml). The cells were washed once in EB basal media containing 1 μM ROCK inhibitor and soybean trypsin inhibitor (0.25 mg/ml). The cells were plated in low attachment plates in EB basal media containing 1 μM ROCK inhibitor and soybean trypsin inhibitor (0.25 mg/ml). The media was changed the next day to EB basal media containing different cytokine formulations. […] The cytokine combinations used are listed below in Table 3. The EB cultures were half fed with fresh differentiation media every two days. The EB cultures were harvested on day 8, 12 and 17 of differentiation. The EB cultures were harvested by spinning down all the cells and digesting the EBs with TrypLE™ or 0.5% trypsin. The phenotype of the progenitor cell types was analyzed by flow cytometry and the cells were plated in methylcellulose media for CFU assays. “FLT3” refers to the Flt3 ligand below.

[1] = ROCK inhibitor present (1 μM H1152 or 10 μM Y27632), 0.5% PVA present
[2] = ROCK inhibitor present, PVA absent

In the case of Cc1cncc2cccc(S(=O)(=O)N3CCCNCC3C)c12 (stereo in doubt) [H-1152, (S)-(+)-2-Methyl-1-[(4-methyl-5-isoquinolinyl)sulfonyl]homopiperazine], the “potency relative to HA-100” value (ROCK) is listed as “approximately ten-fold”, the EB status (hESCs and iPSCs; [1]) is listed as “Formed” and the EB status (hESCs and iPSCs; [2]) is listed as “Formed”.

With C[C@@H](N)[C@H]1CC[C@H](C(=O)Nc2ccncc2)CC1 [Y-27632, (R)-(+)-trans-4-(1-Aminoethyl)-N-(4-Pyridyl)cyclohexanecarboxamide] the EB status (hESCs and iPSCs; [1]) was “Formed” and the EB status (hESCs and iPSCs; [2]) was “Formed”.

For BMP4: Bone morphogenetic protein-4, the “promotion of hematopoietic differentiation” value (pluripotent cells) was “did not promote hematopoietic differentiation”, the CD31 expressing cells (hESCs; DAY 8, factor ABSENT) was 0.2% and the CD34 expressing cells (hESCs; DAY 8, factor ABSENT) was 0.5%. The CD43 expressing cells (hESCs; DAY 8, factor ABSENT) was 0.1%, the CD45 expressing cells (hESCs; DAY 8, factor ABSENT) was 0.2% and the FLK-1 expressing cells (hESCs; DAY 8, factor ABSENT) was 1.4%. It also gave a CD31 expressing cells (hESCs; DAY 8, factor PRESENT) of 1.3%, a CD34 expressing cells (hESCs; DAY 8, factor PRESENT) of 1.7% and a CD43 expressing cells (hESCs; DAY 8, factor PRESENT) of 1.6%. The CD45 expressing cells (hESCs; DAY 8, factor PRESENT) was 0.2%, the FLK-1 expressing cells (hESCs; DAY 8, factor PRESENT) was 2.4% and the CD31 expressing cells (hESCs; DAY 12, factor ABSENT) was 0.6%. The CD34 expressing cells (hESCs; DAY 12, factor ABSENT) was 1.3%, the CD43 expressing cells (hESCs; DAY 12, factor ABSENT) was 0.3% and the CD45 expressing cells (hESCs; DAY 12, factor ABSENT) was 0.1%. It also gave an FLK-1 expressing cells (hESCs; DAY 12, factor ABSENT) of 0.2%, a CD31 expressing cells (hESCs; DAY 12, factor PRESENT) of 3.2% and a CD34 expressing cells (hESCs; DAY 12, factor PRESENT) of 2.9%. The CD43 expressing cells (hESCs; DAY 12, factor PRESENT) was 4.0%, the CD45 expressing cells (hESCs; DAY 12, factor PRESENT) was 3.7% and the FLK-1 expressing cells (hESCs; DAY 12, factor PRESENT) was 0.7%. It also gave a CD31 expressing cells (hESCs; DAY 17, factor ABSENT) of 1.0%, a CD34 expressing cells (hESCs; DAY 17, factor ABSENT) of 2.0% and a CD43 expressing cells (hESCs; DAY 17, factor ABSENT) of 0.7%. The CD45 expressing cells (hESCs; DAY 17, factor ABSENT) was 0.3%, the FLK-1 expressing cells (hESCs; DAY 17, factor ABSENT) was 0.8% and the CD31 expressing cells (hESCs; DAY 17, factor PRESENT) was 11.9%. The CD34 expressing cells (hESCs; DAY 17, factor PRESENT) was 2.9%, the CD43 expressing cells (hESCs; DAY 17, factor PRESENT) was 12.8% and the CD45 expressing cells (hESCs; DAY 17, factor PRESENT) was 12.8%. For the same molecule, the FLK-1 expressing cells (hESCs; DAY 17, factor PRESENT) was 2.7% and the “role during EB differentiation” value (hESCs) was “significant role at all time points”.

For VEGF, the “promotion of hematopoietic differentiation” value (pluripotent cells) was “did not promote hematopoietic differentiation”, the CD31 expressing cells (hESCs; DAY 8, factor ABSENT) was 0.4% and the CD34 expressing cells (hESCs; DAY 8, factor ABSENT) was 0.7%. For the same molecule, the CD43 expressing cells (hESCs; DAY 8, factor ABSENT) was 0.1%, the CD45 expressing cells (hESCs; DAY 8, factor ABSENT) was 0.1% and the FLK-1 expressing cells (hESCs; DAY 8, factor ABSENT) was 2.0%. For the same molecule, the CD31 expressing cells (hESCs; DAY 8, factor PRESENT) was 1.1%, the CD34 expressing cells (hESCs; DAY 8, factor PRESENT) was 1.5% and the CD43 expressing cells (hESCs; DAY 8, factor PRESENT) was 1.6%. The CD45 expressing cells (hESCs; DAY 8, factor PRESENT) was 0.2%, the FLK-1 expressing cells (hESCs; DAY 8, factor PRESENT) was 1.8% and the CD31 expressing cells (hESCs; DAY 12, factor ABSENT) was 0.6%. The CD34 expressing cells (hESCs; DAY 12, factor ABSENT) was 1.3%, the CD43 expressing cells (hESCs; DAY 12, factor ABSENT) was 0.2% and the CD45 expressing cells (hESCs; DAY 12, factor ABSENT) was 0.2%. The FLK-1 expressing cells (hESCs; DAY 12, factor ABSENT) was 0.3%, the CD31 expressing cells (hESCs; DAY 12, factor PRESENT) was 3.2% and the CD34 expressing cells (hESCs; DAY 12, factor PRESENT) was 2.9%. The CD43 expressing cells (hESCs; DAY 12, factor PRESENT) was 4.0%, the CD45 expressing cells (hESCs; DAY 12, factor PRESENT) was 3.6% and the FLK-1 expressing cells (hESCs; DAY 12, factor PRESENT) was 0.6%. It also gave a CD31 expressing cells (hESCs; DAY 17, factor ABSENT) of 1.0%, a CD34 expressing cells (hESCs; DAY 17, factor ABSENT) of 2.0% and a CD43 expressing cells (hESCs; DAY 17, factor ABSENT) of 0.9%. The CD45 expressing cells (hESCs; DAY 17, factor ABSENT) was 0.4%, the FLK-1 expressing cells (hESCs; DAY 17, factor ABSENT) was 1.4% and the CD31 expressing cells (hESCs; DAY 17, factor PRESENT) was 11.8%. For the same molecule, the CD34 expressing cells (hESCs; DAY 17, factor PRESENT) was 2.8%, the CD43 expressing cells (hESCs; DAY 17, factor PRESENT) was 12.6% and the CD45 expressing cells (hESCs; DAY 17, factor PRESENT) was 12.7%. The FLK-1 expressing cells (hESCs; DAY 17, factor PRESENT) was 2.3% and the “role during EB differentiation” value (hESCs) was “significant role at all time points”.
